Experiments:
Assay in all cases: relative viability (nuclei count vs DMSO), 5 days (fraction); higher = more cells survive
[1] = compound: C[C@]12O[C@H](C[C@]1(O)CO)n1c3ccccc3c3c4c(c5c6ccccc6n2c5c31)CNC4=O [Lestaurtinib] + CC(=O)Nc1cccc(-n2c(=O)n(C3CC3)c(=O)c3c(Nc4ccc(I)cc4F)n(C)c(=O)c(C)c32)c1 [Trametinib] (partner 0.02 µM)
Outline: (§1)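 A single step with final 0.05% Triton X-100, 1% formaldehyde and 1 ug/ml Hoechst fixed the cells and stained nuclei 5 days after treatment. Lung cancer cell lines in 1536-well plates had been treated by pin tool the day after seeding with one drug alone or a fixed anchor-drug dose plus five library-drug doses (not always all listed) in √10 steps, and nuclei were counted on 4× images. Relative viability is the ratio of nuclei in treated wells to nuclei in vehicle wells, taken as the median of duplicate plates.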

TPCA-1 + Navitoclax = compound: C1=CC(=CC=C1C2=CC(=C(S2)NC(=O)N)C(=O)N)F [TPCA-1] + CC1(C)CCC(c2ccc(Cl)cc2)=C(CN2CCN(c3ccc(C(=O)NS(=O)(=O)c4ccc(N[C@H](CCN5CCOCC5)CSc5ccccc5)c(S(=O)(=O)C(F)(F)F)c4)cc3)CC2)C1 [Navitoclax] (partner 0.5 µM)
Outline: as §1

TPCA-1 + Alpelisib = compound: C1=CC(=CC=C1C2=CC(=C(S2)NC(=O)N)C(=O)N)F [TPCA-1] + Cc1nc(NC(=O)N2CCC[C@H]2C(N)=O)sc1-c1ccnc(C(C)(C)C(F)(F)F)c1 [Alpelisib] (partner 2 µM)
Outline: as §1

[2] = compound: C1/C(=C\C2=CC=CS2)/C(=O)/C(=C/C3=CC=CS3)/C1 + COc1cc2c(Oc3ccc(NC(=O)C4(C(=O)Nc5ccc(F)cc5)CC4)cc3F)ccnc2cc1OCCCN1CCOCC1 [Foretinib] (partner 0.25 µM)
Outline: as §1

| Cell Line | relative viability ([1]; first compound 0.005 µM) | relative viability ([1]; first compound 0.01581 µM) | relative viability ([1]; first compound 0.05 µM) | relative viability ([1]; first compound 0.1581 µM) | relative viability ([1]; first compound 0.5 µM) | relative viability (TPCA-1 + Navitoclax; first compound 0.04 µM) | relative viability (TPCA-1 + Navitoclax; first compound 0.1265 µM) | relative viability (TPCA-1 + Navitoclax; first compound 0.4 µM) | relative viability (TPCA-1 + Navitoclax; first compound 1.265 µM) | relative viability (TPCA-1 + Navitoclax; first compound 4 µM) | relative viability (TPCA-1 + Alpelisib; first compound 0.04 µM) | relative viability (TPCA-1 + Alpelisib; first compound 0.1265 µM) | relative viability (TPCA-1 + Alpelisib; first compound 0.4 µM) | relative viability (TPCA-1 + Alpelisib; first compound 1.265 µM) | relative viability (TPCA-1 + Alpelisib; first compound 4 µM) | relative viability ([2]; first compound 0.2 µM) | relative viability ([2]; first compound 0.6325 µM) | relative viability ([2]; first compound 2 µM) | relative viability ([2]; first compound 6.325 µM) | relative viability ([2]; first compound 20 µM) |
| --- | --- | --- | --- | --- | --- | --- | --- | --- | --- | --- | --- | --- | --- | --- | --- | --- | --- | --- | --- | --- |
| NCI-H2085 | 0.476 | 0.514 | 0.558 | 0.652 | 0.46 | 1.14 | 1.1 | 1.2 | 1.12 | 1.13 | 0.935 | 0.903 | 1 | 0.939 | 0.933 | 1.09 | 1.05 | 0.984 | 0.927 | 0.883 |
| NCI-H2087 | 0.201 | 0.264 | 0.203 | 0.23 | 0.187 | 1.02 | 0.818 | 0.936 | 0.791 | 0.356 | 1.06 | 0.871 | 0.916 | 1.06 | 0.418 | 1.26 | 1.28 | 1.15 | 1.17 | 1.13 |
| NCI-H2126 | 0.625 | 0.6 | 0.624 | 0.52 | 0.578 | 0.866 | 0.791 | 0.899 | 0.812 | 0.767 | 0.759 | 0.673 | 0.753 | 0.786 | 0.596 | 1.38 | 0.985 | 1.3 | 1.08 | 1.08 |
| NCI-H2170 | 0.896 | 0.864 | 0.609 | 0.764 | 0.31 | 0.666 | 0.52 | 0.497 | 0.559 | 0.264 | 0.906 | 0.697 | 0.803 | 0.733 | 0.526 | 1.02 | 0.99 | 1.02 | 0.887 | 1.03 |
| NCI-H2228 | 0.589 | 0.575 | 0.452 | 0.322 | 0.156 | 0.758 | 0.68 | 1.18 | 0.656 | 0.595 | 0.869 | 0.809 | 1.02 | 0.609 | 0.485 | 0.816 | 0.992 | 0.869 | 0.913 | 0.715 |
| NCI-H2347 | 0.288 | 0.305 | 0.299 | 0.278 | 0.301 | 0.788 | 0.855 | 0.726 | 0.568 | 0.762 | 1.14 | 0.969 | 1.03 | 0.817 | 0.917 | 0.703 | 1.1 | 1.08 | 0.729 | 1.03 |
| NCI-H2405 | 0.701 | 0.656 | 0.572 | 0.54 | 0.274 | 0.971 | 0.691 | 0.964 | – | 0.714 | 1.06 | 0.599 | 0.805 | – | 0.605 | 1.11 | 1.03 | 1.17 | 0.948 | 1.12 |
| NCI-H3122 | 0.298 | 0.228 | 0.228 | 0.223 | 0.335 | 0.995 | 1.01 | 1.04 | 1.02 | 1.01 | 0.846 | 0.728 | 0.92 | 0.947 | 0.74 | 1.01 | 0.934 | 1 | 0.81 | 0.846 |
| PC-3 [JPC-3] | 0.766 | 0.709 | 0.779 | 0.575 | 0.585 | 0.839 | 0.807 | 0.802 | 0.677 | 0.719 | 1.01 | 1.02 | 1.04 | 0.957 | 0.958 | 1.11 | 1.05 | 1.01 | 0.865 | 1.11 |
| PC-14 | 0.793 | 0.787 | 0.701 | 0.548 | 0.0827 | 1.03 | 0.876 | 1.01 | 1.09 | 0.913 | 0.952 | 0.879 | 0.965 | 0.787 | 0.75 | 0.942 | 0.932 | 0.937 | 0.847 | 0.885 |
| RERF-LC-KJ | 0.946 | 0.879 | 0.736 | 0.701 | 0.478 | 0.967 | 0.883 | 1.06 | 0.866 | 0.766 | 0.974 | 0.774 | 0.773 | 0.733 | 0.699 | 0.932 | 0.929 | 0.866 | 0.985 | 0.808 |
| SK-LU-1 | 0.452 | 0.476 | 0.415 | 0.384 | 0.318 | 0.962 | 0.785 | 0.789 | 0.7 | 0.566 | 1.16 | 0.805 | 1 | 0.605 | 0.452 | 0.846 | 0.85 | 0.937 | 0.795 | 0.831 |
| SK-MES-1 | 0.535 | 0.515 | 0.495 | 0.415 | 0.208 | 1.3 | 1.07 | 1.22 | 1.16 | 0.797 | 0.935 | 0.704 | 0.996 | 0.691 | 0.586 | 0.949 | 1 | 0.925 | 0.701 | 0.848 |
| SW 1573 | 0.712 | 0.672 | 0.491 | 0.367 | 0.144 | 1.14 | 0.866 | 0.916 | 0.962 | 0.948 | 0.872 | 0.631 | 0.659 | 0.709 | 0.784 | 0.879 | 0.965 | 0.939 | 0.843 | 0.825 |

— the supplement of paper PMC10307832
